Experimental data: US9151743B2, “Use of EEF1A as biomarker and a method of screening MetAP2 inhibitors” (MERCK PATENT GMBH, priority 2008, dated 2015)

How the values were obtained:
[1] = system: bEND3, HT1080, HCT116 cells (EEF1A1 Band 2); experiment: IEF separation of cellular extracts after MetAP2 inhibitor treatment, Coomassie Blue staining; format: cell-based, mouse, human; conditions: 100 nM TNP-470; 1 μM A-832234; versus DMSO-treated cells
Method: (§1) Cellular extracts were electrophoretically separated for detailed analysis. Isoelectric focusing electrophoresis was performed in a gradient range of pH 7-9. The IEF gels (CleanGel IEF ultra ETC1001-52 from ETC, Germany) were re-hydrated in 7 M urea, 2 M thiourea, 1% DTE, 4% CHAPS, 3%, Servalyte 7-9 for 120 min, and assembled on a Multiphor II electrophoresis unit (GE Healthcare). Samples (5 μl) were applied close to the anode and run with anode buffer (6 M glycine) and cathode fluid 10 (Serva, Germany). […] Separation was performed at 2000 V for 210 min, followed by band sharpening at 2500 V for 10 min. After removal the gel was equilibrated in transfer buffer (50 mM Tris-HCl pH 7.5, 4 M guanidinium chloride, 1 mg/ml DTT) for a diffusion blot onto PVDF membrane and run overnight. Subsequently, the membrane was stained either with Coomassie Blue or immunostained with rabbit PcAb anti-human EEF1A1 (Proteintech Group, USA; 11402-1-AP) for 3 h and detected with ECL-Plus reagent (GE Healthcare).
IEF separation of cellular extracts after treatment of different endothelial and cancer cells (mouse: bEND3, human: HT1080, HCT116) was performed in a range of pH 7-9 (FIG. 1). Comparing extracts from DMSO-treated and MetAP2 inhibitor-treated (100 nM TNP-470; […] . A zoomed view is shown in FIG. 2.

[2] = system: HUVEC endothelial cells; experiment: Inhibition of HUVEC cell proliferation (colorimetric BrdU-Elisa); conditions: Homo sapiens, 72 h, read-out: Inhibition of HUVEC proliferation (BrdU incorporation) (IC50)
Method: In this case the compounds were incubated in serial dilutions with the HUVEC endothelial cells for 72 h and subsequently processed for BrdU detection.

[3] = molecular target: MetAP2 (Homo sapiens, UniProt P50579); experiment: Inhibition of MetAP2 activity: cleavage of tripeptide Met-Ala-Ser, enzyme-coupled detection of methionine; format: biochemical
[4] = system: EEF1A1 in bEND3 cells; experiment: EEF1A1 electrophoretic mobility shift in IEF gel, bEND3 cell extracts; format: cell-based, mouse; conditions: for EEF1A1 mobility shift versus negative controls (FIG. 10): bEND3 cells, 48 h, concentrations of Table 1
Method: as §1
The compounds used were characterized as inhibitors of MetAP2 and inhibitors of HUVEC cell proliferation with the indicated potencies (IC50).

MetAP2, sequence (P50579 whole entry, species assumed): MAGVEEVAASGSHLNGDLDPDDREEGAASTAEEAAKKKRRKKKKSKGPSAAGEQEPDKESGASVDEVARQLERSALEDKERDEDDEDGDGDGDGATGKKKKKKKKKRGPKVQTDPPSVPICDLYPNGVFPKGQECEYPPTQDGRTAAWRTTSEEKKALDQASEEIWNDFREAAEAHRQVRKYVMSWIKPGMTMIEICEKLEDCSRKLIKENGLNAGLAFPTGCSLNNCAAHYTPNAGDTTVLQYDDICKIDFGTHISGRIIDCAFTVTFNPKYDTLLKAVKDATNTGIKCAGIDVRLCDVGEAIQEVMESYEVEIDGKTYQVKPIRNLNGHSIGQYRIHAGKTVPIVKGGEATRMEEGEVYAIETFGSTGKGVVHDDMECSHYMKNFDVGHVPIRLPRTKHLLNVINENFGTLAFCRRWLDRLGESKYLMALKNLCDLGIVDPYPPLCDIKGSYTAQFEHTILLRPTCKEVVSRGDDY

CO[C@@H]1[C@H](OC(=O)NC(=O)CCl)CC[C@]2(CO2)[C@H]1[C@@]1(C)O[C@@H]1CC=C(C)C [TNP470]
new protein band (Band 2) after IEF pH 7-9 [1]: a novel protein band
IC50 [2]: 0.1 nM
IC50 [3]: 14 nM
EEF1A1 mobility shift, time course ([4]; bEND3 cell extract, TNP470, up to 48 h): a second band (Band 2) with increasing intensity was already to be seen after 2 h
EEF1A1 mobility shift versus negative controls (FIG. 10) [4]: active MetAP2 inhibitors

CCN(CC)C/C=C\c1cc(F)ccc1S(=O)(=O)Nc1ccc2c(c1C(=O)O)CCCC2 [Compound A-832234, 2-[2-((Z)-3-Diethylamino-propenyl)-4-fluoro-benzenesulfonylamino]-5,6,7,8-tetrahydro-naphthalene-1-carboxylic acid]
new protein band (Band 2) after IEF pH 7-9 [1]: a novel protein band
EEF1A1 mobility shift versus negative controls (FIG. 10) [4]: active MetAP2 inhibitors
